Where two headings read alike, the source gives them in different places.
Columns and labels:
Meloidogyne incognita = Meloidogyne incognita test (MELGIN); assay type: in vivo; conditions: 20 ppm; lettuce; after 14 days
Procedure: Meloidogyne incognita Test (MELGIN) Solvent: 125.0 parts by weight of acetone To produce a suitable active ingredient formulation, 1 part by weight of active ingredient is mixed with the stated amount of solvent and the concentrate is diluted with water to the desired concentration. Vessels are filled with sand, active ingredient solution, an egg/larvae suspension of the southern root-knot nematode (Meloidogyne incognita) and lettuce seeds. The lettuce seeds germinate and the plants develop. The galls develop on the roots. After 14 days, the nematicidal efficacy in % is determined by the formation of galls. 100% means that no galls were found; 0% means that the number of galls on the treated plants corresponds to the untreated control.

[1] = Determination of log P values by HPLC (reversed-phase C18); assay type: physicochemical; conditions: for chromatographic logP: reversed-phase C18 HPLC column
Procedure: 1) Description of Method for Determination of the Log P Values ([…]) The log P values given in the table were determined in accordance with EEC Directive 79/831 Annex V.A8 by HPLC (High Performance Liquid Chromatography) using a reversed-phase column (C 18). Temperature: 55° C. […] Gradient: from 10% eluent A/90% eluent B to 95% eluent A/5% eluent B in 4.25 min. Calibration was effected with unbranched alkan-2-ones (having 3 to 16 carbon atoms) with known log P values (log P values determined on the basis of the retention times by linear interpolation between two successive alkanones). The lambda max values were determined in the maxima of the chromatographic signals using the UV spectra from 200 nm to 400 nm.

[2] = HPLC, reversed-phase C18, 55° C., final compounds table
[3] = HPLC-MS, preparation examples, read-out: log P (neutral)
[4] = compounds of formula (IIa-1), R3 hydrogen
[5] = N-[1-aryl-1H-1,2,4-triazol-3-yl]benzamides, formula (1-9)
[6] = pH 3.4, HPLC-MS, preparation examples, read-out: log P

With `O=C(Nc1ncn(-c2c(F)cccc2Br)n1)c1ccccc1Cl` [Compound I-1-31] the “nematicidal efficacy (formation of galls)” value (from here on “nematicidal efficacy”) (Meloidogyne incognita) was 100% and the “log P neutral” value [1, 2] was 1.95.
In the case of `O=C(Nc1ncn(-c2c(F)cccc2F)n1)c1cc(F)ccc1C(F)(F)F` [Compound I-1-19], the “nematicidal efficacy” value (Meloidogyne incognita) is reported as 100% and the “log P neutral” value [1, 2] is reported as 2.09.
In the case of `O=C(Nc1ncn(-c2ccccc2C(F)(F)F)n1)c1ccccc1C(F)(F)F` [Compound I-1-8], the “nematicidal efficacy” value (Meloidogyne incognita) is reported as 100% and the “log P neutral” value [1, 2] is reported as 2.24.
For `O=C(Nc1ncn(-c2c(Br)cccc2Br)n1)c1ccccc1C(F)(F)F` [Compound I-1-80], the “nematicidal efficacy” value (Meloidogyne incognita) was 100% and the “log P neutral” value [1, 2] was 2.32.
In the case of `CCc1ccccc1C(=O)Nc1ncn(-c2c(F)ccc(F)c2F)n1` [Compound I-1-60], the “nematicidal efficacy” value (Meloidogyne incognita) is reported as 100% and the “log P neutral” value [1, 2] is reported as 2.21.
In the case of `O=C(Nc1ncn(-c2c(F)cccc2F)n1)c1ccccc1Cl` [Compound I-1-13, 2-Chloro-N-[1-(2,6-difluorophenyl)-1H-1,2,4-triazol-3-yl]benzamide], the “nematicidal efficacy” value (Meloidogyne incognita) is reported as 100% and the chromatographic logP [1, 3] is reported as 1.73.
For `O=C(Nc1ncn(-c2c(F)c(F)cc(F)c2F)n1)c1ccccc1C(F)(F)F` [Compound I-1-93], the “nematicidal efficacy” value (Meloidogyne incognita) was 100% and the “log P neutral” value [1, 2] was 2.23.
For `O=C(Nc1ncn(-c2c(F)ccc(F)c2F)n1)c1ccccc1Cl` [Compound I-1-58], the “nematicidal efficacy” value (Meloidogyne incognita) was 100% and the “log P neutral” value [1, 2] was 1.91.
For `Cc1cc(C)c(-n2cnc(NC(=O)c3ccccc3C(F)(F)F)n2)cc1SCC(F)(F)F` [Compound I-1-98], the “log P neutral” value [1, 2] was 3.21.
For `Cc1cccc(Cl)c1-n1cnc(N)n1` [IIa-1 R1=Cl R2m=6-CH3], the “logP (neutral)” value [1, 4] was 1.12.
For `O=C(Nc1ncn(-c2c(F)cccc2F)n1)c1ccccc1OC(F)(F)F` [Compound I-1-17], the “log P neutral” value [1, 2] was 2.14.
With `Nc1ncn(-c2ccccc2Cl)n1` [IIa-1 R1=Cl R2m=—] the “logP (neutral)” value [1, 4] was 0.96.
With `Nc1ncn(-c2ccccc2C(F)(F)F)n1` [IIa-1 R1=CF3 R2m=—] the “logP (neutral)” value [1, 4] was 1.16.
For `CCc1cccc(Cl)c1-n1cnc(NC(=O)c2ccccc2Cl)n1` [Compound I-1-43], the “log P neutral” value [1, 2] was 2.36.
For `O=C(Nc1ncn(-c2c(F)cccc2I)n1)c1ccccc1Cl` [Compound I-1-84], the “log P neutral” value [1, 2] was 2.02.
In the case of `CCc1cccc(Cl)c1-n1cnc(N)n1` [IIa-1 R1=Cl R2m=6-C2H5], the “logP (neutral)” value [1, 4] is reported as 1.12.
With `O=C(Nc1ncn(-c2c(F)cccc2Cl)n1)c1ccccc1` [1-9 R1=Cl R2m=6-F] the “logP (neutral)” value [1, 5] was 1.75.
`Nc1ncn(-c2c(F)cccc2F)n1` [1-(2,6-Difluorophenyl)-1H-1,2,4-triazol-3-amine] gave a chromatographic logP [1, 3] of 0.61.
With `Cc1cccc(F)c1-n1cnc(NC(=O)c2ccccc2Cl)n1` [Compound I-1-38] the “log P neutral” value [1, 2] was 1.99.
For `O=C(Nc1ncn(-c2ccccc2Cl)n1)c1ccccc1Cl` [Compound I-1-5], the “log P neutral” value [1, 2] was 1.91.
With `O=C(Nc1ncn(-c2ccccc2Cl)n1)c1c(F)cccc1F` [Compound I-1-6] the “log P neutral” value [1, 2] was 1.90.
With `Cc1cc(C)c(S(=O)(=O)CC(F)(F)F)cc1-n1cnc(NC(=O)c2ccccc2C(F)(F)F)n1` [Compound I-1-96] the “log P neutral” value [1, 2] was 2.49.
In the case of `O=C(Nc1ncn(-c2cccc(Cl)c2Cl)n1)c1ccccc1` [1-9 R1=Cl R2m=3-Cl], the “logP (neutral)” value [1, 5] is reported as 2.11.
In the case of `O=C(Nc1ncn(-c2ccccc2C(F)(F)F)n1)c1ccccc1Cl` [Compound I-1-7], the “log P neutral” value [1, 2] is reported as 2.06.
`COc1ccccc1-n1nnc(NC(=O)c2ccccc2C(F)(F)F)n1` [Compound I-2-1, N-[2-(2-Methoxyphenyl)-2H-tetrazol-5-yl]-2-(trifluoromethyl)benzamide] gave a chromatographic logP [1, 6] of 2.19 and a chromatographic logP ([1]; HPLC, reversed-phase C18, 55° C., final compounds table, read-out: log P neutral) of 2.19.
In the case of `Nc1noc(-c2ccccc2)n1` [5-Phenyl-1,2,4-oxadiazol-3-amine], the chromatographic logP [1, 3] is reported as 1.28.
`O=C(Nc1nn[nH]n1)c1ccccc1C(F)(F)F` [N-(2H-Tetrazol-5-yl)-2-(trifluoromethyl)benzamide] showed a chromatographic logP [1, 6] of 1.17.
In the case of `O=C(Nc1ncn(-c2ccccc2OC(F)(F)F)n1)c1ccccc1Cl` [Compound I-1-9], the “log P neutral” value [1, 2] is reported as 2.32.

Source: patent publication US9920017B2, “Heterocyclic compounds as pesticides” (BAYER CROPSCIENCE AKTIENGESELLSCHAFT, priority 2014, dated 2018)
